Several values for one entry are separate records, joined by “and”; a condition that tells them apart may be missing. Equal values may be shown once. Read-outs that look alike come from different tables or passages of the source. Marks after values point to notes of the source that are not given here. One block for each molecule: values may come before it.
Assays:
[1] = Organ distribution (biodistribution) of cabozantinib in rats with or without radiotherapy; assay type: in vivo, Sprague–Dawley rats; details: for Concentration of cabozantinib in brain / Concentration of cabozantinib in heart / Concentration of cabozantinib in kidney / Concentration of cabozantinib in liver / Concentration of cabozantinib in lung / Concentration of cabozantinib in spleen: rat, 6 mg/kg p.o. 3 days, six hours after administration
Description: The whole liver was targeted for irradiation. […] The data were collected from six rats per group.
Nine Gy was used to simulate the SBRT dose.
The brain, liver, heart, spleen, lung and kidney were collected and weighed. These collected samples were stored at −20 °C until analysis.
The thawed organ samples were homogenized in 50% aqueous acetonitrile (the ratio of sample weight to volume was 1:5), and the homogenate was centrifuged at 13,000× g for 10 min at 4 °C. The supernatant was collected, placed in brown Eppendorf tubes, and stored at −20 °C until analysis. Briefly, each organ sample (50 μL) was combined with 150 μL of IS solution (diethylstilbestrol) for protein precipitation. Finally, 20 μL of filtrate was subjected to HPLC analysis.

[2] = Sprague-Dawley, rat, in vivo
Description: (§1) The HPLC system consisted of a chromatographic pump (LC-20AT), an online injector (SIL-20C) equipped with a 10 μL sample loop to inject the sample and an ultraviolet detector (SPD-M20A). […] Biochanin A was used as the internal standard (IS), and the retention time of biochanin A was 3.8 min (Figure 4).
(§2) A freely moving rat model was designed for the current study [19]. Briefly, the whole liver for the EBRT technique or central area 1.5 × 1.5 cm in size for the SBRT technique of rats was localized by computed tomography. For the whole liver field, the cranial margin was set 5 mm from the top of the diaphragm, and the caudal margin was set 5 mm lower than the liver margin. The whole liver was targeted for irradiation. […] The data were collected from six rats per group.
(§3) A radiation dose of 2 Gy was considered the daily conventional dose or the off-target dose around the target that received an ablation RT dose. Nine Gy was used to simulate the SBRT dose. […] Rats were initially anesthetized with pentobarbital (50 mg/kg, i.p.) and remained anesthetized throughout the experimental period. After the surgery, the rats were placed in an experimental cage and allowed to recover for 1 day. Cabozatinib was dissolved in triply deionized water and administered (6 mg/kg, p.o.) to the rats (n = 6 per group).
(§4) Blood samples were collected via polyethylene tubing (PE-50) implanted into the jugular vein of each rat in a heparin-rinsed vial. An aliquot of 100–120 µL of blood was collected at time intervals of 0, 5, 15, 30, 45, 60, 90, 120, 150, 180, 210 and 240 min following drug administration. At each time point, 200 μL of blood was drawn into heparin-rinsed Eppendorf tubes and then centrifuged at 13,000 rpm for 10 min at 4 °C to obtain plasma. Plasma was stored at −20 °C until analysis. Each collected blood sample was transferred to a heparinized microcentrifuge tube and centrifuged at 13,000 rpm for 10 min. The resulting plasma (50 μL) was then mixed with 150 μL of internal standard solution (10 μg/mL). The denatured protein precipitate was separated by vortexing for 20 s and centrifuged at 13,000 rpm for 10 min at 4 °C.
(§5) Pharmacokinetic parameters, including the area under the concentration versus time curve (AUC), clearance (CL), elimination half-life (𝑡1/2), volume of distribution at steady state (Vss) and mean residence time (MRT), were calculated using the pharmacokinetics calculation software WinNonlin Standard Edition, Version 1.1 (Scientific Consulting, Apex, NC, USA) by a compartmental method. Relative bioavailability (RB %) = (AUCirradiated/AUCcontrol) × 100.

[3] = cited from earlier work
[4] = metastatic renal cell carcinoma patients, cited from earlier work
[5] = cited from earlier work; remark: listed apart in the source
plasma protein = details: cited from earlier work
[6] = design: method as in PMID 30649748; details: cited from earlier work
[7] = tested on: triple-negative 4T1 cells; details: combination of RT with cabozantinib, in vitro; cited from earlier work
tumor growth = details: combination of cabozantinib and irradiation, in vivo; cited from earlier work
[8] = Pharmacokinetics of cabozantinib in plasma of freely moving rats with or without liver radiotherapy; details: for AUC(0-t): AUC0-T; for AUC(0-t) / Cmax / MRT / Tmax / Vss: rat plasma, 6 mg/kg p.o. q.d. 3 days
Description: as §1, §2, §3, §4, §5

[9] = cited from earlier work; remark: listed apart in the source
[10] = design: method as in PMID 32533042; details: cited from earlier work; for Complete recanalization rate: p = 0.014
[11] = rats, RT9Gy×3 f'x sequential compared to RT9Gy×3 f'x concurrent regimen, p = 0.02
[12] = phase III study of HCC, cabozantinib alone
[13] = Sprague-Dawley, rat, plasma, po, 6 mg/kg, RT 2Gy x 3 f'x concurrent
[14] = Sprague-Dawley, rat, plasma, po, 6 mg/kg, RT 2Gy x 3 f'x sequential
[15] = Sprague-Dawley, rat, plasma, po, 6 mg/kg, RT 9Gy x 3 f'x concurrent
[16] = Sprague-Dawley, rat, plasma, po, 6 mg/kg, RT 9Gy x 3 f'x sequential
[17] = Sprague-Dawley, rat, plasma, po, 6 mg/kg, cabozantinib only (no RT)

Concentration of cabozantinib in brain ([1]; RT 2Gy concurrent): 0.00 ± 0.00 µg/mL or µg/g
Concentration of cabozantinib in heart ([1]; RT 2Gy concurrent): 0.52 ± 0.39 µg/mL or µg/g
Concentration of cabozantinib in kidney ([1]; RT 2Gy concurrent): 0.17 ± 0.06 µg/mL or µg/g
Concentration of cabozantinib in liver ([1]; RT 2Gy concurrent): 0.39 ± 0.16 µg/mL or µg/g
Concentration of cabozantinib in lung ([1]; RT 2Gy concurrent): 0.40 ± 0.34 µg/mL or µg/g
Concentration of cabozantinib in spleen ([1]; RT 2Gy concurrent): 0.16 ± 0.03 µg/mL or µg/g
Concentration of cabozantinib in brain ([1]; RT 2Gy sequential): 0.00 ± 0.00 µg/mL or µg/g
Concentration of cabozantinib in heart ([1]; RT 2Gy sequential): 0.26 ± 0.11 µg/mL or µg/g
Concentration of cabozantinib in kidney ([1]; RT 2Gy sequential): 0.29 ± 0.09 ^a µg/mL or µg/g
Concentration of cabozantinib in liver ([1]; RT 2Gy sequential): 0.47 ± 0.18 µg/mL or µg/g
Concentration of cabozantinib in lung ([1]; RT 2Gy sequential): 0.35 ± 0.19 µg/mL or µg/g
Concentration of cabozantinib in spleen ([1]; RT 2Gy sequential): 0.16 ± 0.05 µg/mL or µg/g
Concentration of cabozantinib in brain ([1]; RT 9Gy concurrent): 0.00 ± 0.00 µg/mL or µg/g
Concentration of cabozantinib in heart ([1]; RT 9Gy concurrent): 0.16 ± 0.05 µg/mL or µg/g
Concentration of cabozantinib in kidney ([1]; RT 9Gy concurrent): 0.16 ± 0.07 µg/mL or µg/g
Concentration of cabozantinib in liver ([1]; RT 9Gy concurrent): 0.28 ± 0.14 µg/mL or µg/g
Concentration of cabozantinib in lung ([1]; RT 9Gy concurrent): 0.16 ± 0.10 µg/mL or µg/g
Concentration of cabozantinib in spleen ([1]; RT 9Gy concurrent): 0.20 ± 0.07 µg/mL or µg/g
Concentration of cabozantinib in brain ([1]; RT 9Gy sequential): 0.00 ± 0.00 µg/mL or µg/g
Concentration of cabozantinib in heart ([1]; RT 9Gy sequential): 0.29 ± 0.09 *^b µg/mL or µg/g
Concentration of cabozantinib in kidney ([1]; RT 9Gy sequential): 0.30 ± 0.14 ^b µg/mL or µg/g
Concentration of cabozantinib in liver ([1]; RT 9Gy sequential): 0.59 ± 0.24 ^b µg/mL or µg/g
Concentration of cabozantinib in lung ([1]; RT 9Gy sequential): 0.36 ± 0.08 *^b µg/mL or µg/g
Concentration of cabozantinib in spleen ([1]; RT 9Gy sequential): 0.16 ± 0.04 µg/mL or µg/g
Concentration of cabozantinib in brain ([1]; cabozantinib only (no RT)): 0.00 ± 0.00 µg/mL or µg/g
Concentration of cabozantinib in heart ([1]; cabozantinib only (no RT)): 0.14 ± 0.06 µg/mL or µg/g
Concentration of cabozantinib in kidney ([1]; cabozantinib only (no RT)): 0.22 ± 0.06 µg/mL or µg/g
Concentration of cabozantinib in liver ([1]; cabozantinib only (no RT)): 0.44 ± 0.19 µg/mL or µg/g
Concentration of cabozantinib in lung ([1]; cabozantinib only (no RT)): 0.25 ± 0.05 µg/mL or µg/g
Concentration of cabozantinib in spleen ([1]; cabozantinib only (no RT)): 0.12 ± 0.09 µg/mL or µg/g
Increase of biodistribution in the heart ([1]; rats, RT2Gy×3 f'x concurrent regimen, printed as compared to the concurrent regimen, p = 0.04): 271.4% and 271%
Increase of biodistribution in the lung ([1]; rats, RT9Gy×3 f'x sequential compared to RT9Gy×3 f'x concurrent regimen, p = 0.004): 125%
Increase of biodistribution in the heart [1, 11]: 81.3%
Increase of biodistribution in the liver [1, 11]: 110.5%
Increase of biodistribution in the kidneys ([1]; rats, RT9Gy×3 f'x sequential compared to RT9Gy×3 f'x concurrent regimen, p = 0.048): 87.5%
Increase of biodistribution in the heart ([1]; rats, RT9Gy×3 f'x sequential regimen compared with control group, p = 0.01): 107.1% and 107%
Increase of biodistribution in the lung ([1]; rats, RT9Gy×3 f'x sequential regimen compared with control group, p = 0.02): 44%
Detection of cabozantinib in the brain ([1]; rats, any of the groups): No cabozantinib was detected
Increase of kidney biodistribution ([1]; rats, sequential RT2Gy×3 f'x compared to control group, p = 0.02): 31.8% and 32%
Decrease of Tmax [2]: 72.8%
Increase of CL [2]: 249.0%
Increase of Tmax [2]: 404.1%
concentration at 60 min ([8]; Sprague-Dawley, rat, plasma, po, 6 mg/kg): 800 ng/mL
AUC(0-t) [8, 13]: 5100 ng·h/mL
AUC(0-t) [8, 14]: 3900 ng·h/mL
AUC(0-t) [8, 15]: 4290 ng·h/mL
AUC(0-t) [8, 16]: 4180 ng·h/mL
AUC(0-t) [8, 17]: 4440 ng·h/mL
Cmax [8, 13]: 1600 ± 470 ng/mL
Cmax [8, 14]: 1360 ± 540 ng/mL
Cmax [8, 15]: 1370 ± 470 ng/mL
Cmax [8, 16]: 1350 ± 490 ng/mL
Cmax [8, 17]: 1440 ± 440 ng/mL
MRT [8, 13]: 13.7 h
MRT [8, 14]: 9.05 h
MRT [8, 15]: 11.2 h
MRT [8, 16]: 38.5 h
MRT [8, 17]: 26.7 h
Tmax [8, 13]: 0.611 h
Tmax [8, 14]: 3.08 h
Tmax [8, 15]: 0.639 h
Tmax [8, 16]: 2.92 h
Tmax [8, 17]: 2.25 h
Vss ([8]; RT 2Gy x 3 f'x concurrent): 3.942 ± 1.303 L/kg
Vss ([8]; RT 2Gy x 3 f'x sequential): 5.668 ± 2.22 L/kg
Vss ([8]; RT 9Gy x 3 f'x concurrent): 4.204 ± 1.272 L/kg
Vss ([8]; RT 9Gy x 3 f'x sequential): 3.153 ± 0.482 L/kg
Vss ([8]; cabozantinib only (no RT)): 4.831 ± 1.307 L/kg
Compound: COc1cc2nccc(Oc3ccc(NC(=O)C4(C(=O)Nc5ccc(F)cc5)CC4)cc3)c2cc1OC [cabozantinib]
Rate of grade 3 or 4 adverse events ([3]; cabozantinib alone for HCC treatment): 10–17%
Serious adverse events rate ([3]; cabozantinib for HCC treatment): 12%
Grade 3 or 4 diarrhea [3, 12]: 10%
Grade 3 or 4 fatigue [3, 12]: 10%
Grade 3 or 4 hypertension [3, 12]: 16%
Grade 3 or 4 increased aspartate aminotransferase level [3, 12]: 12%
Grade 3 or 4 palmar–plantar erythrodysesthesia [3, 12]: 17%
Grade 3–4 AE rate ([4]; cabozantinib concurrent with SBRT): 3.6%
Grade 3–4 AE rate ([4]; cabozantinib concurrent with conventional RT): 6.3%
Half-life [5]: approximately 110 h
Increase of AUC of cabozantinib ([5]; liver function impaired): 63–81%
Time of second absorption peak after administration ([5]; plasma concentration–time profiles): approximately 24 h
Increase of AUC of cabozantinib ([5]; renal function impaired): 7–30%
Plasma protein binding (plasma protein): ≥ 99.7%
Osteonecrosis of jaw [6]: 1%
Risk of grade 3 or above hemorrhagic events [6]: 2.1–3%
Serious gastrointestinal perforation or fistula [6]: 1.2–3%
Effect on clonogenic survival [7]: a synergistic effect was found
Tumor growth control (tumor growth): not increased

Compound: COc1cc2nccc(Oc3ccc(NC(=O)NC4CC4)c(Cl)c3)c2cc1C(N)=O [lenvatinib]
Increase of AUC of lenvatinib ([9]; sequential RT9Gyx3f'x group): 2 fold

Compound: CNC(=O)c1cc(Oc2ccc(NC(=O)Nc3ccc(Cl)c(C(F)(F)F)c3)c(F)c2)ccn1 [regorafenib]
Increase of AUC of regorafenib ([9]; sequential RT9Gyx3f'x group): 1.3 fold

Compound: CNC(=O)c1cc(Oc2ccc(NC(=O)Nc3ccc(Cl)c(C(F)(F)F)c3)cc2)ccn1 [sorafenib]
Increase of AUC of sorafenib ([9]; concurrent RT9Gy groups): 4 fold
Increase of AUC of sorafenib ([9]; sequential RT9Gy group): 1.6 fold
Complete recanalization rate, SBRT relative to conventional RT ([10]; SBRT with sorafenib versus conventional RT): 3 fold
Complete recanalization rate ([10]; SBRT with sorafenib): 28%
Complete recanalization rate ([10]; conventional RT with sorafenib): 8%

From PMC10056485 (International Journal of Molecular Sciences, 2023)
